From patent US20040180850A1, “Methods and compositions for treatment of gastric diseases” (priority 2001, published 2004)
“Also recorded” adds a separate entry of the source.

Tests used:
Helicobacter pylori [1] = experiment: TLC overlay assay of neoglycolipids (reductively aminated oligosaccharides); type: binding
Excerpt: The Helicobacter pylori binding oligosaccharide sequence has been reported in the structure GlcNAcβ3Galβ4GlcNAcβ6GalNAc from human gastric mucins. […] Therefore the preferred oligosaccharide sequences include O-glycans and analogues of O-glycan sequences such as GlcNAcβ3Galβ4GlcNAcβ6GlcNAc/GalNAc/Gal, GleNAcβ3Galβ4GlcNAcβ6GlcNAc/GalNAc/GalαSer/Thr, GlcNAcβ3Galβ4GlcNAcβ6(Gal/GlcNAcβ3)GlcNAc/GalNAc/GalαSer/Thr and glycopeptides and glycopeptide analogs comprising the O-glycan sequences. Even sequences lacking the non-reducing end GlcNAc may have some activity. Based on this all the other Helicobacter pylori binding oligosaccharide sequences (OS) and especially the trisaccharide epitopes are also especially preferred when linked from the reducing end to form structures OSβ6Gal(NAc)0-1 or OSβ6Glc(NAc)0-1 or OSβ6Gal(NAc)0-1Ser/Thr or OSβ6Glc(NAc)0-1αSer/Thr. The Ser or Thr-compounds or analogue thereof or the reducing oligosaccharides are also preferred when linked to a polyvalent carrier. The reducing oligosaccharides can be reductively linked to the polyvalent carrier.
TLC bacterial overlay assay. Thin-layer chromatography was performed on glass- or aluminum-backed silica gel 60 HPTLC plates (Merck, Darmstadt, Germany) using chloroform/methanol/water 60:35:8 (by volume) as solvent system. Chemical detection was accomplished by anisaldehyde stainig (Waldi, 1962). The bacterial overlay assay was performed as described previously (Hansson et al., 1985). Glycosphingolipids (1-4 μg/lane, or as indicated in the figure legend) were chromatographed on aluminum-backed silica gel plates and thereafter treated with 0.3-0.5% polyisobutylmethaerylate in diethylether/n-hexane 1:3 (by volume) for 1 min, dried and subsequently soaked in PBS containing 2% bovine serum albumin and 0.1% Tween 20 for 2 h A suspension of radio-labeled bacteria (diluted in PBS to 1×10^8 CFU/ml and 1-5×10^6 cpm/ml) was sprinkled over the chromatograms and incubated for 2 h followed by repeated rinsings with PBS. After drying the chromatograms were exposed to XAR-5 X-ray films (Eastman Kodak Co., Rochester, N.Y., USA) for 12-100 h.
0.6 mg of pentasaccharide was obtained after HPLC-purcation steps, the saccharide was more than 98% pure when analyzed by mass spectrometry. Part of the pentasaccharide and maltoheptaose (Sigma, Saint Louis, USA) were reductively aminated with 4-hexadecylamnie (abbreviation HDA, from Aldrich, Stockholm, Sweden) by cyanoborohydride (Halina Miller-Podraza, to be published later). […]

[2] = system: Helicobacter pylori (strain 032); experiment: TLC bacterial overlay assay: binding of radiolabeled Helicobacter pylori to glycosphingolipids separated on thin-layer chromatograms; settings: for Helicobacter pylori binding activity of glycosphingolipid (in words): TLC overlay with 35S-labeled bacteria, autoradiography; for binding frequency for Helicobacter pylori: strain 032, total number of plates about 100
Helicobacter pylori [3] = experiment: Semi-quantitative TLC overlay test with dilution series of glycosphingolipids; type: binding; settings: evaluated visually after overlay with labeled bacteria and autoradiography

## CCCCCCCCCCCCCCCCc1ccc(NC[C@H](O)[C@@H](O)[C@H](O[C@@H]2O[C@H](CO)[C@H](O)[C@H](O[C@@H]3O[C@H](CO)[C@@H](O[C@@H]4O[C@H](CO)[C@H](O)[C@H](O[C@@H]5O[C@H](CO)[C@@H](O)[C@H](O)[C@H]5NC(C)=O)[C@H]4O)[C@H](O)[C@H]3NC(C)=O)[C@H]2O)[C@H](O)CO)cc1 [GlcNAcβ3Galβ4GlcNAcβ3Galβ4Glc(red)-HDA]
Helicobacter pylori [1]
  binding activity of neoglycolipid with regard to Helicobacter pylori (in words): observable binding activity

## CC(=O)N[C@H]1[C@H](OC[C@H]2OC(O)[C@H](O)[C@@H](O)[C@H]2O)O[C@H](CO)[C@@H](O[C@@H]2O[C@H](CO)[C@H](O)[C@H](O[C@@H]3O[C@H](CO)[C@@H](O)[C@H](O)[C@H]3NC(C)=O)[C@H]2O)[C@@H]1O (some centres unmarked) [GlcNAcβ3Galβ4GlcNAcβ6Gal]
Helicobacter pylori [1]
  binding activity of neoglycolipid with regard to Helicobacter pylori (in words): some binding activity

## CC(=O)N[C@H]1[C@H](OC[C@H]2OC(O)[C@H](NC(C)=O)[C@@H](O)[C@@H]2O)O[C@H](CO)[C@@H](O[C@@H]2O[C@H](CO)[C@H](O)[C@H](O[C@@H]3O[C@H](CO)[C@@H](O)[C@H](O)[C@H]3NC(C)=O)[C@H]2O)[C@@H]1O (some centres unmarked) [GlcNAcβ3Galβ4GlcNAcβ6GlcNAc]
Helicobacter pylori [1]
  binding activity of neoglycolipid with regard to Helicobacter pylori (in words): high affinity binding

## Fucα2Galβ4GlcNAcβ3Galβ4Glcβ1Cer [No. 18]
[2]
  Helicobacter pylori binding activity of glycosphingolipid (in words): absence of binding

## GalNAcα3(Fucα2)Galβ4GlcNAcβ3Galβ4Glcβ1Cer [No. 22]
[2]
  Helicobacter pylori binding activity of glycosphingolipid (in words): non-binding

## GalNAcβ3Galα3Galβ4GlcNAcβ3Galβ4Glcβ1Cer [No. 25]
[2]
  Helicobacter pylori binding activity of glycosphingolipid (in words): non-binding

## GalNAcβ3Galβ4GlcNAcβ3Galβ4Glcβ1Cer [No. 11]
[2]
  Helicobacter pylori binding activity of glycosphingolipid (in words): binding was also found

## Galα3(Fucα2)Galβ4GlcNAcβ3Galβ4Glcβ1Cer [No. 23]
[2]
  Helicobacter pylori binding activity of glycosphingolipid (in words): non-binding

## Galα3Galβ4GlcNAcβ3Galβ4Glcβ1Cer [No. 13]
[2]
  Helicobacter pylori binding activity of glycosphingolipid (in words): binding-active

## Galα4Galβ4GlcNAcβ3Galβ4Glcβ1Cer [No. 15]
[2]
  Helicobacter pylori binding activity of glycosphingolipid (in words): absence of binding

## Galβ4GlcNAcβ3Galβ4GlcNAcβ3Galβ4Glcβ1Cer [No. 21]
[2]
  Helicobacter pylori binding activity of glycosphingolipid (in words): displayed binding activity
  binding frequency for Helicobacter pylori: ~90%
Helicobacter pylori [3]
  amount of glycolipid giving a positive response on TLC plates (binding of Helicobacter pylori): ~0.2 nmol/spot

## Galβ4GlcNAcβ3Galβ4Glcβ1Cer [No. 5]
[2]
  Helicobacter pylori binding activity of glycosphingolipid (in words): displayed binding activity
Helicobacter pylori [3]
  amount of glycolipid giving a positive response on TLC plates (binding of Helicobacter pylori): ~0.3 nmol/spot

## Galβ4Glcβ1Cer [diglycosylceramide]
[2]
  Helicobacter pylori binding activity of glycosphingolipid (in words): displayed binding activity

## GlcNAcβ3Galβ4GlcNAcβ3Galβ4Glcβ1Cer [No. 10]
[2]; listed as pentaglycosylceramide
  Helicobacter pylori binding activity of glycosphingolipid (in words): strong activity; also recorded: displayed binding activity
[2]
  binding frequency for Helicobacter pylori: ~90%
Helicobacter pylori [3]
  amount of glycolipid giving a positive response on TLC plates (binding of Helicobacter pylori): 0.039 nmol/spot

## GlcNAcβ3Galβ4Glcβ1Cer [No. 1]
[2]
  Helicobacter pylori binding activity of glycosphingolipid (in words): inactive

## NeuAcα3GalNAcβ3Galβ4GlcNAcβ3Galβ4Glcβ1Cer [No. 24]
[2]
  Helicobacter pylori binding activity of glycosphingolipid (in words): non-binding

## NeuGcα3Galβ4GlcNAcβ3Galβ4GlcNAcβ3Galβ4Glcβ1Cer [No. 27]
[2]; about 60 isolates tested
  binding by Helicobacter pylori isolates: bound by most Helicobacter pylori isolates

## maltoheptaose(red)-HDA [maltoheptaose/red)-HDA, reference compound]
Helicobacter pylori [1]
  binding activity of neoglycolipid with regard to Helicobacter pylori (in words): totally inactive
